For data set [1] the following is noted: cited from earlier work.
For data set [2], the system named is RAW 264.7 macrophages. Put plainly: detection of peroxynitrite resulting from phagocytosis by flow cytometry. The format is cell-based. The following applies: for cellular association (cellular fluorescence per sensor brightness): FIG. 8C; for response of cellular fluorescence to SIN-1: SIN-1 50 μM, HPF 10 μM in HBSS, Fl-B 50 μM in DMEM. From the text: The ability of the pro-fluorophore Compounds 1-8 to generate cellular fluorescence was studied. The protocol included treating living RAW 264.7 macrophages with pro-fluorophore Compounds 1-8 and quantified cellular fluorescence by flow cytometry (FIGS. 6A-6B). To trigger phagocytosis and production of endogenous peroxynitrite, these cells were additionally treated with chemically-modified amino-tentagel beads. These beads were either covalently derivatized with the fluorophore Pacific Blue, to provide a less immunostimulatory control, or covalently conjugated with DNP and non-covalently bound to anti-DNP IgG, to promote bead phagocytosis as shown in FIG. 9. To provide a spectrally orthogonal marker, lysine residues of the antibody were conjugated to PB to allow labeled beads to be distinguished from cells by flow cytometry. […] Cells were treated (4 h) with sensor Compounds 1-8 (10 μM) and 10-micron amino-tentagel beads modified either with Pacific Blue-SE (Beads-PB) or 2,4-DNP-X-SE. To the DNP-modified beads was additionally added rabbit anti-DNP IgG (Beads/IgG), conjugated to Pacific Blue via lysines, to stimulate phagocytosis.
The ER-targeting pro-fluorophores were compared with non-ER-targeted sensors of peroxynitrite: hydroxyphenyl fluorescein (HPF) and fluorescein boronate (Fl-B). Since the fluorescence of HPF can be affected by serum proteins, cells were treated with this compound in Hank's balanced salt solution (HBSS). […] In FIG. 6B, the cells were treated with Compound 3 in DMEM media or HBSS and compared with treatment with hydroxyphenyl fluorescein (HPF, 10 μM in HBSS) and fluorescein boronate (Fl-B, 50 μM in DMEM). [SIN-1]=50 μM. [FeTMPyP]=50 μM.
Detection of Peroxynitrite Resulting from Phagocytosis by Flow Cytometry.
RAW264.7 macrophages were seeded on a non-treated 96-well plate (USA Scientific) in complete media (40,000 cells, 200 μL per well) 16 h prior to treatment. These cells adhere to treated plastic very strongly, and the use of non-treated plates was required for subsequent release and analysis of cells by flow cytometry. Fluorescent sensors were diluted from DMSO stock solutions into complete media (final concentration of probe=10 μM, 0.5% DMSO). Fluorescein and Compound 3 were added to Hank's Balanced Salt Solution (HBSS, Corning, pH 7.4). Labeled tentagel beads were added to this complete media or HBSS (200,000 beads/mL). The original media was carefully removed from all wells by aspiration and replaced with the treatment media containing beads and sensors (200 μL per well) in triplicate. After incubation of treated cells at 37° C. for 4 h, aqueous propidium iodide (PI, 20 μL, 30 μM, Thermo Fisher Scientific) was added to each well (final concentration of PI=3 μM). A p200 multichannel pipette was used to release the cells from the plate via sheer force. Cellular fluorescence was analyzed by flow cytometry. Viability was determined by gating based on staining of cells with compromised membranes with PI. Tentagel beads take up significant amounts of PI, making them brighter than cells at 690/50 nm. Additionally, labeling of tentagel beads with Pacific Blue makes them brighter than cells when excited at 405 nm, and additional excitation at this wavelength was used to assure that all beads were excluded from gating of live cells. Median values of fluorescence of living cells in the FITC-A channel (525/40 nm) were compared and plotted.

Data set [3] can be described thus: photophysical properties: quantum yields relative to rhodamine 6G in n-octanol, molar extinction coefficients in DMSO. The format is physicochemical. From the text: Optical spectroscopic properties of the pro-fluorophore Compound 3, as a representative probe, and the rhodol product (Compound 9), in n-octanol as a mimic of ER membranes, are shown in FIG. 2.
The fluorescence emission of Compounds 1-8 was quenched by up to 1800-fold (for Compound 3, Φ=0.0004) compared to Compound 9 (Φ=0.72). However, the brightness of these sensors, calculated as the product of their measured molar extinction coefficients and quantum yields, varied by up to 30-fold (See FIGS. 2A and 2B).

Data set [4] deals with RAW 264.7 macrophages. Put plainly: subcellular localization by confocal laser scanning microscopy. To be noted: for ratio of cytosolic (ER-associated) to nuclear fluorescence: 10 μM, 4 h, living RAW 264.7 macrophages. In kind it is cell-based. From the text:
The pro-fluorophore Compounds 1-8 can cause fluorescence in living cells upon reacting with peroxynitrite. The ability of ER-targeted sensors to detect endogenous peroxynitrite during phagocytosis was further investigated by confocal laser scanning microscopy. […] The left panels of FIGS. 7A-7B show the DIC micrographs and the right panels show the confocal laser scanning micrographs. […] When the cells were additionally treated with DNP-modified amino tentagel beads (10 micron) bound to anti-DNP IgG, cellular green fluorescence is observed and localized to the endoplasmic reticulum. In FIG. 7B, the white arrows point at phagocytosed beads. The scale bar in FIG. 7B is 25 microns. The right panel of FIG. 7A is relatively blank (white instead of black), and then fluorescence is seen in the right panel of FIG. 7B, thereby showing that there is localization to the ER by the compounds of the present invention.
After correcting for differences in brightness, this interpretation was further supported by analysis of cells treated with Compounds 1-8 by flow cytometry.
Analysis of Subcellular Localization.
RAW264.7 macrophages were scraped to passage and diluted to 300,000 cells/mL in complete medium. These cells were plated in an ibiTreat-coated 8-well μ-Slide (ibidi, 300 μL of media per well) and incubated at 37° C. overnight. The next day, the wells were washed once with complete media before treatment with fluorescent probes. Fluorescent sensors in DMSO stock solutions were diluted into complete media and added to cells. ER-Tracker Blue-White DPX (ThermoFisher Scientific) was diluted in DMSO to 100 μM followed by 1:1000 dilution with complete media. Labeled tentagel beads were added to cells at 200,000 beads/mL. Cells were incubated for 4 h at 37° C. followed by imaging by confocal microscopy (without washing). Phagocytosed beads were identified by morphology such as compression of the nucleus around the bead and adjacent fluorescence of ER membranes. […] To quantify the ratio of cytosolic to nuclear fluorescence (FIG. 8), Leica LAS X 2.0.1 software was used to define regions of interest (ROI) within the cytosol, nucleus, and cell-free regions. Mean fluorescence per pixel was calculated using Leica LAS X 2.0.1 software and plotted with SD (N=20). ROI from cell-free regions were used to subtract background fluorescence for comparison.

The nature of data set [5]: limit of detection of peroxynitrite by fluorescence spectroscopy. To be noted: sensor 50 nM in PBS pH 7.4, 0.1% DMSO, 5 min, 23° C. On the procedure:
(PBS, pH 7.4, 0.1% DMSO).
Determination of the Limit of Detection of Peroxynitrite by Compound 3.
The concentration of a stock solution of pure peroxynitrite was measured by absorbance spectroscopy and diluted with aq. NaOH (0.1 M) to provide additional stock solutions. […] The detection limit of Compound 3 was determined based on a reported method (Yu, F., Li, P., Wang, B., and Han, K. (2013) Reversible near-infrared fluorescent probe introducing tellurium to mimetic glutathione peroxidase for monitoring the redox cycles between peroxynitrite and glutathione in vivo, J. Am. Chem. Soc. 135, 7674-7680; Shortreed, M., Kopelman, R., Kuhn, M., and Hoyland, B. (1996) Fluorescent fiber-optic calcium sensor for physiological measurements, Anal. Chem. 68, 1414-1418). The fluorescence emission at 526 nm was normalized between the minimum intensity (0 nM peroxynitrite, Fmin) and the maximum intensity (500 nM peroxynitrite, Fmax) using the following equation: (F−Fmin)/(Fmax−Fmin). […]

Data set [6] relates to cells in culture. Kind of data set: cytotoxicity in culture (FIG. 5). The following applies: 10 μM, 48 hours in culture. In kind it is cell-based.
For data set [7] the following is noted: sensor 50 nM, PBS pH 7.4, 5 min, 23° C.
Method: Maximal fluorescence emission was measured by fluorescence spectroscopy after treatment for 5 min at 23° C. (PBS, pH 7.4, 0.1% DMSO).
A normalized DMSO stock solution of Compound 3 in DMSO (50 μM) was diluted 1:1000 with PBS (pH 7.4) to yield a 50 nM solution (0.1% DMSO) in triplicate. RNS and ROS were generated as described below and diluted into the solution in volumes that changed the overall volume by 0.5% or less. These solutions were mixed, incubated at room temperature for 5 min, and transferred to a quartz cell for analysis by fluorescence spectroscopy.
The concentration of peroxynitrite was measured by absorbance spectroscopy (ε=1670 M^−1cm^−1 at 302 nm in aq. NaOH, 0.1 M). To provide stock solutions, peroxynitrite was diluted with NaOH (aq., 0.1 M). These solutions were diluted 1:1000 into solutions of Compound 3 for analysis. […] The concentration of ClO^− was verified by absorbance spectroscopy (ε=350 M^−1cm^−1 at 209 nm) in water.
Hydroxyl radical (.OH) was generated using the Fenton reaction (Jia, X., Chen, Q., Yang, Y., Tang, Y., Wang, R., Xu, Y., Zhu, W., and Qian, X. (2016) FRET-Based Mito-Specific Fluorescent Probe for Ratiometric Detection and Imaging of Endogenous Peroxynitrite: Dyad of Cy3 and Cy5, J. Am. Chem. Soc. 138, 10778-10781). […] The concentration of H2O2 was verified by absorbance spectroscopy (ε=43.6 M^−1cm^−1 at 240 nm) in water. […]

Take `O=NOO` [peroxynitrous acid]: the pKa in data set [1] is given as 6.84.
Regarding `Cc1ccccc1-c1c2cc(F)c(=O)cc-2oc2cc(N(C)c3cc(C(C)(C)C)c(O)c(C(C)(C)C)c3)c(F)cc12` [Compound 4], the “cellular association (cellular fluorescence per sensor brightness)” value in data set [2] (flow cytometry) is “lower cellular association than Compound 2”.
Regarding `CNc1cc2oc3cc(=O)c(F)cc-3c(-c3ccccc3C)c2cc1F` [Compound 9], the “quantum yield Φ” value in data set [3] is recorded as 0.72. In addition, in data set [4] (data not shown), the “accumulation in the ER by co-localization with ER tracker blue-white DPX” value was “confirmed to accumulate in the ER” and the “time to extensive loss of cellular fluorescence after washing cells once with complete media (efflux)” value was 10 to 20 min.
With `Cc1cc(N(C)c2cc3oc4cc(=O)c(F)cc-4c(-c4ccccc4C)c3cc2F)ccc1O` [Compound 2], the “ratio of cytosolic (ER-associated) to nuclear fluorescence” value (shortened to “ratio of cytosolic (ER-associated)”) in data set [4] is reported as 3.7.
On to `Cc1ccccc1-c1c2cc(F)c(=O)cc-2oc2cc(N(C)c3cc(Cl)c(O)c(Cl)c3)c(F)cc12` [Compound 8], for which the “cellular association (cellular fluorescence per sensor brightness)” value in data set [2] (flow cytometry) was “lowest cellular association”.
On to `COc1cc(N(C)c2cc3oc4cc(=O)c(F)cc-4c(-c4ccccc4C)c3cc2F)ccc1O` [Compound 5], for which the “ratio of cytosolic (ER-associated)” value in data set [4] turned out to be 2.6.
For “fluorescein boronate [Fl-B, reference compound]”, in data set [2], the “response of cellular fluorescence to SIN-1” value was “responded to SIN-1 and could increase cellular fluorescence”.
Consider `O=C1OC2(c3ccc(O)cc3Oc3cc(Oc4ccc(O)cc4)ccc32)c2ccccc21` (stereo not drawn) [HPF, hydroxyphenyl fluorescein, reference compound], for which the “response of cellular fluorescence to SIN-1” value in data set [2] was “responded to SIN-1 and could increase cellular fluorescence”.
Take `Cc1ccccc1-c1c2cc(F)c(=O)cc-2oc2cc(N(C)c3cc(C)c(O)c(C)c3)c(F)cc12` [Compound 3]: the “approximate limit of detection: peroxynitrite giving a 2-fold increase in fluorescence intensity” value in data set [5] is ~40 nM. Besides, the “quantum yield Φ” value in data set [3] was found to be 0.0004. Under “HPLC”, the “conversion by SIN-1 to Compound 9, analysis by HPLC” value is given as “cleanly convert”. Also, where the note is “buffer, pH 7.4”, the “pseudo-first-order half-time t1/2 of reaction with SIN-1” value came to 49 s. Further, the “cytosolic fluorescence after addition of antibody-opsonized beads” value in data set [4] (10 μM sensor, tentagel beads/IgG, confocal microscopy) is “dramatic increase in localized cytosolic fluorescence”. For the same compound, the “ratio of cytosolic (ER-associated)” value in data set [4] is listed as 6.7. Besides, in data set [4] (confocal microscopy, data not shown), the “fluorescence enhancement on co-treatment with FeTMPyP” value is “substantially reduced”. The “accumulation in the ER by co-localization with ER tracker blue-white DPX” value in data set [4] (data not shown) was “confirmed to accumulate in the ER”. The “decrease of cellular fluorescence on co-treatment with peroxynitrite decomposition catalyst FeTMPyP” value in data set [2] (IgG-bound beads, FeTMPyP 50 μM) was “over 50%”. Besides, the “detection of peroxynitrite upon mild treatment of cells with antibody-opsonized tentagel beads” value in data set [2] (flow cytometry, FIG. 6B) is “could detect peroxynitrite”. In addition, the “concentration in cells relative to Compound 5” value in data set [2] (flow cytometry, corrected for brightness, identical conditions (FIG. 8C)) turned out to be 4 fold. Moreover, the “change in cellular fluorescence upon addition of IgG-coated beads” value in data set [2] (sensor 10 μM, 4 h, Beads/IgG, flow cytometry) was determined as 10 fold. In addition, in data set [6], the cytotoxicity entry was “negligible cytotoxicity”. Further, in data set [7], the “selectivity for peroxynitrite versus perchlorite, hydroxyl radical, superoxide, peroxides, nitric oxide” value was “highly selective for peroxynitrite”.

Source of the values: patent publication US10663471B2, “Fluorescent sensors of peroxynitrite targeted to the endoplasmic reticulum” (The University of Kansas, priority 2018, dated 2020).
